From patent US8138304B2, “Neural regeneration peptides and formulations thereof” (Neuren Pharmaceuticals Limited, priority 2005, dated 2012)
Where no end group is shown, it is not given here.

Experiments:
JAr cells = test: TNF-alpha-induced cytotoxicity in immortalized trophoblast cell line; assay type: cell-based, human; settings: EGF 5 ng/ml
Description: Choriocarcinoma cells (Jeg-3, BeWo and Jar; ATCC) were cultured under similar conditions in DMEM/F-12 cell culture medium in 75 cm2 flasks with filter tops (Raylab). Cells were allowed to adhere and grow in an incubator equilibrated in 95%/5% air/CO2 to approximately 70% confluence, before being split every 2 to 3 days by addition of 2 ml of 1× concentrated trypsin-EDTA. After a centrifugation step for 5 min at 1100 rpm, cells were resuspended in 15 ml of fresh DMEM/F-12 in sterile tissue flasks and placed back in the incubator.
In this study, we plated 50,000 JAr cells per well. JAr cells are an immortalized line of cells derived from a human choriocarcinoma cells. Wells were pre-incubated with NRP-5RG D6A (SEQ ID NO: 1) at the concentrations indicated in FIG. 12, or epidermal growth factor (EGF; 5 ng/ml) for 2 hours. Subsequently, cells were exposed to the cultures for 48 hours to TNF-alpha (5 ng/ml) and interferon-gamma (5 ng/ml) to induce stress.

[1] = test system: primary human trophoblasts; test: Trophoblast proliferation assay (BrdU incorporation); assay type: cell-based; settings: EGF 0.8×10^−9 M; 24 hrs; BrdU
Description: Cell proliferation was determined by BrdU incorporation to examine the effects of NRP-5RG D6A on the proliferation of trophoblasts. EGF (0.8×10^−9 M) was used as a positive control, since studies have previously shown it plays a role in enhancing trophoblast proliferation (Maruo et al., 1992).
Initially cells were treated with NRP-5RG D6A (SEQ ID NO: 1), EGF and BrdU (0.05 μM) for 72 hrs. After the first 24 hrs, an 80% media change was carried out since BrdU is toxic over long incubation periods. Following 72 hrs of incubation, the reaction was stopped by fixation in 4% PFA. However, with this experimental design, most trophoblasts would form syncytia by the end of the 72 hrs, hindering accurate examination of the proliferative effect of NRP-5RG D6A on trophoblasts. […] This allowed analysis of proliferation of mononuclear trophoblasts.
Cell proliferation was evaluated over 24 hrs after seeding 1.3×10^5 cells/cm^2 in culture media (1% serum) treated with 0.05 μM BrdU, NRP-5RG D6A and EGF (FIG. 13).

cerebellar cells = test: Cerebellar microexplant proliferation assay (BrdU); assay type: cell-based, Wistar rat; settings: p<0.01; SEQ ID NO: 1 at 1 pM, SEQ ID NO: 2 at 100 pM
Description: (§1) Laminated cerebellar cortices of the two hemispheres were explanted from a P3, P4, P7 or P8 Wistar rat, cut into small pieces in GBSS with 0.65% D(+)glucose solution, and triturated by a 0.4 mm gauge needle and subsequently pressed through a 125 μm pore size sieve. The obtained microexplants were centrifuged (60×g) 2 times for a medium exchange into serum-free BSA-supplemented START V-medium (Biochrom). Finally, the microexplants were reconstituted in 500 μl STARTV-medium. For culturing, 38 μl of the cell suspension was incubated for 1 hour on a poly-D-lysine-coated cover slip in a 35 mm Petri dish under an atmosphere comprising 5% CO2 in air and 100% humidity at 34° C. Subsequently, the injuring toxins (as described below), NRPs and 1 ml of STARTV-medium were added, and the cultures were evaluated after 2-3 days of culture.
Toxicological and drug administration experiments were designed such that 1/100 parts of toxin and neuroprotective drug were administered simultaneously to the freshly prepared cerebellar microexplants. Glutamate was prepared as a 50 mM stock solution in MilliQ water while 50 mM 3-nitropropionic acid was pH-adjusted (pH 6.8-7.2) in MilliQ water. The concentrations of the oxidative stress inducing toxin, 3-nitropropionic acid (3-NP), and the excitotoxin, glutamate, in the assay were 0.5 mM each. Lyophilized peptides were reconstituted in PBS or 100 μg/ml human transferrin as a 10 μM stock solution. Subsequently, serial dilutions were made. Cerebellar microexplants were cultivated for 48-72 hours at 34° C., 5% CO2 in air and 100% humidity before they were fixed by increasing amounts of paraformaldehyde (0.4%, 1.2%, 3% and 4%—each treatment 2-3 min).
Using the toxins described above, cerebellar explants were exposed for 24 hours, at the beginning of culturing to dilutions of NRP (survival assay) or NRP and 0.1 μM BrdU (proliferation assay). Subsequently, 80% of the medium was changed without addition of new toxins and NRPs. […]
For statistical analysis of proliferation BrdU-positive nuclei were counted. Statistical significance was measured by Student's t-test.

[2] = test system: peripheral neuropathy induced by pyridoxine; test: Pyridoxine-induced peripheral neuropathy: hind limb adduction test; assay type: in vivo, Sprague Dawley rats; settings: end of the study
Description: (§2) Adult male Sprague Dawley P50 rats were divided into the vehicle (n=9) and NRP-treated (n=10) groups. The rats were killed with an overdose of sodium pentobarbiturate on the 24 day from the first administration of pyridoxine.
(§3) From day 1, all rats were injected intraperitoneally (IP), twice daily, with 350 mg/kg pyridoxine for 8 consecutive days. Pyridoxine (Sigma) solution for injections was made using the following proportions: 95 mg of pyridoxine and 41 mg sodium bicarbonate in 1 ml of water.
On days 1 to 10 the vehicle group (n=10) received one daily IP-injection of 24 mM sucrose and the rats in the NRP-treated group (n=10) received 4 μg/kg of NRP-5 segment GG analogue D4A (GRRAAPGRAGG-NH2; SEQ ID NO:2) diluted in 24 mM sucrose. Lyophilised NRP was stored in the presence of sucrose or alternatively in trehalose at room temperature. For every intraperitoneal (i.p.) injection, NRP-5 segment GG analogue D4A was reconstituted to 100 μM peptide concentration containing 0.5M sucrose/trehalose, further diluted with PBS to the actual working solution of 5 μg/ml NRP-5 segment GG analogue D4A (containing 24 mM sucrose). […]
Overall motor movement impairment was analysed by assessing the ability of each rat to adduct (i.e. keep its limbs close to the body) its hind limbs. […] These were scored as “0”. Rats that drew their hind limbs back after a slight delay were scored as “1”. […]

[3] = test system: peripheral neuropathy induced by pyridoxine; test: Pyridoxine-induced peripheral neuropathy: motor impairment score; assay type: in vivo, Sprague Dawley rats
Description: as §2, §3
On days 1 to 10 the vehicle group (n=10) received one daily IP-injection of 24 mM sucrose and the rats in the NRP-treated group (n=10) received 4 μg/kg of NRP-5 segment GG analogue D4A (GRRAAPGRAGG-NH2; SEQ ID NO:2) diluted in 24 mM sucrose. Lyophilised NRP was stored in the presence of sucrose or alternatively in trehalose at room temperature. […]
Overall motor impairment was analysed by assessing the gait of each rat: 1) on a flat surface and 2) its ability to walk across a wooden beam. […]
If the animal walked with no difficulty whatsoever, it was scored as a “0.” If there appeared to be problems in its gait, it was placed on a raised wooden beam. […]

[4] = test system: peripheral neuropathy induced by pyridoxine; test: Pyridoxine-induced peripheral neuropathy: precision beam walk test; assay type: in vivo, Sprague Dawley rats; settings: for beam walk score: 7-step walk total score
Description: as §2, §3
(§4) On days 1 to 10 the vehicle group (n=10) received one daily IP-injection of 24 mM sucrose and the rats in the NRP-treated group (n=10) received 4 μg/kg of NRP-5 segment GG analogue D4A (GRRAAPGRAGG-NH2; SEQ ID NO:2) diluted in 24 mM sucrose. Lyophilised NRP was stored in the presence of sucrose or alternatively in trehalose at room temperature. For every intraperitoneal (i.p.) injection, NRP-5 segment GG analogue D4A was reconstituted to 100 μM peptide concentration containing 0.5M sucrose/trehalose, further diluted with PBS to the actual working solution of 5 μg/ml NRP-5 segment GG analogue D4A (containing 24 mM sucrose). A rat with a body weight of 250 g was injected with 200 μl of the working solution.
The precision beam walk test was used to assess the animals' precise coordinated movement on days 13, 17 and 24. Briefly, animals were habituated once daily for 7 days before start of pyridoxine treatment on a 1.5 m long beam (with two longitudinal stripes indicating the median of the beam). On day 0 (one day before pyridoxine/NRP treatment) a baseline of motor behaviour on the beam was videotaped. […] All scores were added for the 7-step walk to receive a total score for one tested animal at a given time point. If the tested rat could only stand on the beam but was unable to not walk it was given the score of 30, and if it was unable to stand on the beam, it was scored as 32.

[5] = Pyridoxine-induced peripheral neuropathy: weight loss; assay type: in vivo, Sprague Dawley rats; settings: 4 μg/kg IP daily days 1 to 10
Description: as §2, §3, §4
Animals are weighed daily during the experimental timeframe of 24 days. According to the study protocol, animals showing weight loss of more than 15% body weight were immediately killed. One of the control animals was sacrificed on day 4 of the pyridoxine treatment (control n=9).

[6] = test system: experimental autoimmune encephalomyelitis (EAE) induced by MOG; test: EAE model of multiple sclerosis, prophylactic treatment; assay type: in vivo, mice, strain C57Bl/6J; settings: for incidence of disease / mortality / average clinical score: 14 days from day 5
cerebellar microexplants = test: Cerebellar microexplant survival assay (3-NP/glutamate injury); assay type: cell-based, Wistar rat; settings: in this particular assay; concentration not given
Description: as §1
Toxicological and drug administration experiments were designed such that 1/100 parts of toxin and neuroprotective drug were administered simultaneously to the freshly prepared cerebellar microexplants. […]
For statistical analysis of survival, four fields (each field having an area of 0.65 mm^2) of each fixed cerebellar culture with the highest cell densities were chosen, and cells displaying neurite outgrowth were counted (survival assay).

[7] = test system: experimental autoimmune encephalomyelitis (EAE) induced by MOG; test: EAE model of multiple sclerosis, therapeutic treatment; assay type: in vivo, mice, strain C57Bl/6J; settings: score 0-6
[8] = 0.2 μg peptide/day (8.33 μg/kg) i.p.

EGF: epidermal growth factor; proliferation-inducing peptide used as internal/positive control [reference compound]
trophoblast proliferation in the absence of TNF-alpha injury (JAr cells): stimulated trophoblast proliferation
rescue of JAr cells from TNF-alpha-induced cytotoxicity (JAr cells; 2 hours pre-incubation): weak effect
increase in trophoblast proliferation compared to control [1]: 116.7±44%

GRRAAPGRAGG-NH2 (listed as Homo sapiens) [SEQ ID NO: 2, 11-mer analogue of NRP-5]
proliferation compared against injured cells without NRP (cerebellar cells): highly proliferation-inducing
animals with no sign of hind limb adduction after manual manipulation [2]: 9 out of 10
hind limb adduction score ([2]; score 0-3, 4 μg/kg IP daily days 1 to 10): 0.10+0.31
motor impairment score ([3]; day 13 (peak of disease), score 0-3, 4 μg/kg IP daily days 1 to 10): 0.60+0.52
motor impairment outcome ([3]; day 24): recovered
rats that performed the 7-step walk ([4]; day 13): 6 out of 10
beam walk score ([4]; day 13): 23.50 ± 2.46
animals that could perform the walk ([4]; day 17): all but one
beam walk score ([4]; day 17): 21.70 ± 1.43
beam walk, difference between vehicle and NRP-treated group ([4]; day 24): no longer a significant difference
initial weight loss [5]: 3.7%
body weight versus vehicle-treated group ([5]; day 8 until day 21): significantly higher
body weight at the peak of weight loss ([5]; day 10): 96.3+1.2 % of day 1 weight

GTPGRAEAGGQVSPCLAASCSQAYG (listed as Homo sapiens) [SEQ ID NO: 4, 25-mer NRP-4 GG]
incidence of disease ([6]; 1 ug peptide/day i.p.): 8 out of 10
mortality ([6]; 1 ug peptide/day i.p.): 0
average clinical score ([6]; day 27, 1 ug peptide/day i.p.): 1.0
disease profile compared to saline control ([6]; from 12 days onwards until day 27, 1 ug peptide/day i.p.): significant attenuation of the disease profile

IGF-1: Neuroprotectant named as comparator in the cerebellar microexplant assay [reference compound]
rescue values, protection (cerebellar microexplants): approximately 20%

REGRRDAPGRAGG (listed as Homo sapiens) [SEQ ID NO: 3, 13-mer NRP-5 segment RG]
mean clinical score after treatment ([7]; 0.1 μg peptide/animal (4.16 μg/kg) i.p. daily for 14 days from peak of disease): 1.16
mean clinical score before treatment ([7]; peak of the disease (day 17 after MOG-immunization)): 2.61

SEPEARRAPGRKGGVVCASLAADW (listed as Mus musculus) [SEQ ID NO: 5, 24-mer NRP-7 SW]
average clinical score [6, 8]: less than 0.5
incidence of disease [6, 8]: 7 out of 9
mortality [6, 8]: No animals died
clinical score compared to saline control ([6]; from day 12 onwards, 0.2 μg peptide/day i.p.): significant attenuation in clinical score
